In one experiment the test system is Enterobacter. Nature of the experiment: MIC by standard blood agar dilution technique. The following applies: MR tri −. A general note: In agar dilution the substance is mixed into plates at graded concentrations.
The test system of another experiment is Streptococcus group G. Nature of the experiment: MIC by standard blood agar dilution technique. The settings on record: inoculate size 10^3.

From the text for Enterobacter: (§1) The following bacteria were investigated: methicillin-resistant Staphylococcus aureus (MSRA), fucidic acid-resistant S. aureus, non-resistant S. pyogenes, coagulation-negative staphylococci (for resistance, see Table 1 below) vancomycin-resistant enterococci (Enterococcus CCUG van A and van B), non-resistant Escherichia coli, Acinetobacter resistant against cefadroxil, nitrofurantin, mecillinam, Serratia maltophilia resistant against most types of antibiotics, Enterobacter (for resistance, see Table 1 below; additionally resistant against cefadroxil and nitrofurantin), non-resistant α-streptococci, non-resistant Streptococcus Group G, Pseudomonas aeruginosa (for resistance, see Table 2 below). Inocula of 10^3 and 10^5 bacteria were used.
From the text for Streptococcus group G: as §1

Turning to `OCCCCCO` [pentane-1,5-diol], the “MIC (% by weight of pentane-1,5-diol)” value in the experiment with Enterobacter (Enterobacter 921 × 57097, inoculate size 10^3) was 5.0 % by weight; against Enterobacter (Enterobacter 921 × 57097, inoculate size 10^5) it was 10.0 % by weight; in the experiment on Enterobacter (Enterobacter 921 × 57100, inoculate size 10^3), 5.0 % by weight; against Enterobacter (Enterobacter 921 × 57100, inoculate size 10^5), 10.0 % by weight; in the experiment with Enterobacter (Enterobacter 921 × 57119, inoculate size 10^3), 5.0 % by weight; with Enterobacter (Enterobacter 921 × 57119, inoculate size 10^5) it was 10.0 % by weight. For the same compound, the “MIC (% by weight of pentane-1,5-diol)” value came out at 5.0 % by weight with Enterobacter (Enterobacter 921 × 57416, inoculate size 10^3); 10.0 % by weight with Enterobacter (Enterobacter 921 × 57416, inoculate size 10^5); 5.0 % by weight against Enterobacter (Enterobacter 921 × 57514, inoculate size 10^3); 10.0 % by weight in the experiment on Enterobacter (Enterobacter 921 × 57514, inoculate size 10^5); 5.0 % by weight in the experiment with Enterobacter (Enterobacter 921 × 57574, inoculate size 10^3); 10.0 % by weight against Enterobacter (Enterobacter 921 × 57574, inoculate size 10^5). Further, the “MIC (% by weight of pentane-1,5-diol)” value in the experiment on Streptococcus group G (Strepotocccus group G 912 × 1106) worked out at 7.5 % by weight; with Streptococcus group G (Streptococcus group G 900 × 1714), 10.0 % by weight; against Streptococcus group G (Streptococcus group G 915 × 1095), 7.5 % by weight; with Streptococcus group G (Streptococcus group G 915 × 1146), 7.5 % by weight; against Streptococcus group G (Streptococcus group G 916 × 10985), 7.5 % by weight.

Values taken from US7973080B2 (Ambria Dermatology AB, priority 2003, dated 2011).
